Entries after “also recorded” stand apart in the source; their conditions may differ.
Assays:
Reticultiermes flavipes [1] = test: Toxicity tests of nepetalactone on treated filter paper in petri dishes; type: in vivo; settings: filter paper treated with acetone solutions; strengths 5.35%, 0.535%, 0.0535%, 0.000004%
Experimental: Materials: Reticultiermes flavipes, from the family Rhinotermitidae, the most common subterranean termites, were collected for toxicity tests, nepetalactone was obtained by commercial purchase (Kooky Kat Catnip Co., B.C.). For repellency assays, a donated amount of nepetalactone was provided from Iowa State University, courtesy of Dr. Joel Coates. Bioassays: Acetone was used as solvent for nepetalactone and control (permethrin). Absorbent (Fisherbrand) coarse, filter paper was treated with nepetalactone and controls and placed in standard, sterile polystyrene 100×15 mm petri dishes. Reticultierme flavipes (20 per replication) were placed in petri dishes and location monitored at 6 ten minute intervals. Toxicity tests: Toxicity tests of nepetalactone were conducted to determine non-lethal percentage for repellency assays. Permethrin (0.1%) solutions served as known control. Four strengths of nepetalactone were measured: 5.35%, 0.535%, 0.0535%, and 0.000004%. Based on the evident mortality, 0.0535% nepetalactone was selected as the repellency test solution.

Reticultiermes flavipes [2] = test: Repellency tests, half-treated filter paper in petri dishes; type: in vivo; settings: 0.0535% nepetalactone on half of the filter paper; six ten minute intervals
Experimental: Materials: Reticultiermes flavipes, from the family Rhinotermitidae, the most common subterranean termites, were collected for toxicity tests, nepetalactone was obtained by commercial purchase (Kooky Kat Catnip Co., B.C.). For repellency assays, a donated amount of nepetalactone was provided from Iowa State University, courtesy of Dr. Joel Coates. Bioassays: Acetone was used as solvent for nepetalactone and control (permethrin). Absorbent (Fisherbrand) coarse, filter paper was treated with nepetalactone and controls and placed in standard, sterile polystyrene 100×15 mm petri dishes. Reticultierme flavipes (20 per replication) were placed in petri dishes and location monitored at 6 ten minute intervals. Repellency tests: Eight trials each of 0.0535% nepetalactone, 0.1% permethrin, blank, and pure acetone solvent were ran to test repellency. Filter papers were cut in half with solvent on one half and treated side on the opposite half. […] Termites were measured on treated and untreated sides at six consecutive ten minute intervals. Percent repellency was calculated as follows: (# live termites−# live termites treated)/total #termites. Standard mean of the Error (SEM): SEM=(variance)^1/2[…].

Structure (SMILES): CC1=COC(=O)C2C(C)CCC12 (centres unmarked) [nepetalactone, 5,6,7,7a-tetrahydro-4,7-dimethyl cyclopenta[c]pyran-1-(4aH)-one]
- toxic effect (mortality) to termites (Reticultiermes flavipes [1]): lethal to termites; also recorded: toxic effects
- repellant effect on termites (Reticultiermes flavipes [2]): dramatic repellant effect; also recorded: clear repellant

Reference: US6841570B2, “Materials and methods for controlling wood-boring insects” (priority 2002, dated 2005)
